From patent publication US20220251079A1, “BENZO[B][1,8]NAPHTHYRIDINE ACETIC ACID DERIVATIVES AND METHODS OF USE” (STINGTHERA, INC., priority 2019, published 2022)

Experiments:
[1] = target: T1, human STING protein (140-379) (Homo sapiens, UniProt Q86WV6, H232R); assay: Radiometric filtration binding competition assay (WT_FBA_HIS-SUMO-hSWAT); conditions: read-out: WT-hSWAT IC50
T1 construct: 6XHIS-SUMO-hSTING (140-379); made in house; host or cells: BL-21(DE3) E. coli, pET vector
Experimental: A radiometric filtration binding competition assay was performed to quantify the binding affinity of compounds of the present application for the human or mouse STING protein, or associated HAQ human isoform. The competition format filtration binding assay detects the ability of small molecule compounds from binding to and inhibiting the subsequent binding of a tritiated [H3] […] The resulting dose response was fit by non-linear regression to determine an IC50 value, from which a Ki value for each compound was extrapolated.
Briefly, the recombinant C-terminal ligand binding domain of the human STING protein (140-379) or mouse STING protein (139-328) [0.5 μM] was incubated in the presence of a compound of the present application (8 point, 2 fold dilution starting at 300 μM) for 30 min or under control conditions. […] The resulting complexes were then filtered, dried, and scintillation fluid was added and the remaining radio signal was measured to determine the degree of compound ligand inhibition. This assay format was optimized for both the WT and HAQ isoforms of the human protein and the mouse orthologue protein.
Parameters optimized: • a. Form of protein: 6×HIS-SUMO tag or untagged • b. Concentration of target protein: Minimum concentration that achieved >80 max signal • c. Assay DMSO concentration: 10%-0.1% • d. Assay Buffer: Base (Tris or phosphate), Salt concentration, +/−Tween (0.1-2%) • e. […] Probe Concentration: Minimum concentration that achieved max assay window • g. Assay Format: Scintillation Proximity Bead or Filtration Binding Plate • h. Assay Plate: 384 vs 96 well format • i. Assay incubation times for successive incubation steps
WT-hSWAT: WT_FBA_HIS-SUMO-hSWAT IC50 (μM) (“WT”=Wild-type); and WT-mSWAT: MOUSE_FBA_HIS-SUMO-mSWAT C50 (μM) which is the mouse isoform of STING protein.

[2] = target: T2, hSTING-R232 (Homo sapiens, UniProt Q86WV6, H232R); assay: STING Differential Scanning Fluorimetry (DSF) assay, human; type: binding; conditions: human STING R232-WT, 5 μM protein
T2 construct: recombinant mouse or human STING protein (aa140-379); 6xHis-SUMO elsewhere) (cleaved yes); made in house
T2 sequence (Q86WV6 140-379 H232R): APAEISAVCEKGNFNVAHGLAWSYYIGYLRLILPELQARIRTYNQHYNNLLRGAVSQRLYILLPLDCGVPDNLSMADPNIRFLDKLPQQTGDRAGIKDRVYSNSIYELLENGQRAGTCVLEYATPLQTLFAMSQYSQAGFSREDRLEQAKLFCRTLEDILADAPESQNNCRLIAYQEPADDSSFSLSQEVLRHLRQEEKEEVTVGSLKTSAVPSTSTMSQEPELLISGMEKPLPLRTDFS
Experimental: A STING DSF assay was performed to determine protein thermostability shift in response to small molecule ligand binding. A STING thermostability shift assay based on differential scanning fluorimetry was used to measure (1) the net shift in melting temperature (ΔTm)between the apo and ligand-bound states of the STING protein and (2) the concentration of the thermal denaturation transition (FC50) as a surrogate measure of binding affinity (Kd). Briefly, recombinant mouse or human STING protein (aa140-379) comprising the C-terminal binding domain (R232-WT) were purified by affinity chromatography and further processed to remove the purification tag, followed by gel filtration to achieve purity >95%. Protein in assay buffer was transferred to a 384 well plate and incubated with the hydrophobic fluorescent dye SYBR Orange. A temperature ramp was applied to the plate and the resulting dye fluorescence was plotted as a function of temperature. The first derivative of this function (dF/dT) was then used to extrapolate the melting temperature of the protein at various concentrations of compound and determine the thermal denaturation profile of a protein/compound complex.
2. 5 μM purified Target STING Protein
4. Buffer: 100 mM NaCl, 30 mM HEPES, pH 7.5
5. Thermal Ramp: 0.5° C./min
7. 11 point, 2 fold dilution, duplicate, 300 μM high concentrations

[3] = target: T3, STING protein (Homo sapiens, UniProt Q86WV6, H232R); assay: Cell based reporter assay of IRF activation (THP1-dual-KI R232, IRF luciferase); conditions: THP-1; read-out: THP1-dual-KI R232_IRF(Luciferase)_Activity Maximum measured (%)
T3 construct: host or cells: THP-1 dual reporter cells, TMEM173 modified from HAQ to R232 (THP1-dual-KI R232)
T3 sequence (Q86WV6 whole entry H232R): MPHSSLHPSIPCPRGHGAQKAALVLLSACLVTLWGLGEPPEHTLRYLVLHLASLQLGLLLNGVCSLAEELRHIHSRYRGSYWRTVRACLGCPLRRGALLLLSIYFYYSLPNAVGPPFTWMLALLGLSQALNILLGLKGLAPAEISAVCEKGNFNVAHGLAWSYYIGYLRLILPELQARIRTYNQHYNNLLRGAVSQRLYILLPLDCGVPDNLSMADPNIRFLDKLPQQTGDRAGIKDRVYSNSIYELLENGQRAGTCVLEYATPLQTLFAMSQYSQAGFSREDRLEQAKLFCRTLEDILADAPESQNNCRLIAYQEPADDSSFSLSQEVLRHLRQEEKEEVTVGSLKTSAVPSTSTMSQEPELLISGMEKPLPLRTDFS
Description: Cell reporter assays were developed to measure the ability of compounds of the application to activate the STING protein and activate both IRF/IFN and the NFkB signaling pathways in the myeloid derived cell line THP-1, which is commercially available from several suppliers. Briefly, THP-1 monocytes were transfected and selected for stable integration of 2 reporter constructs. Clones incorporating stably integrated vectors were further selected by antibiotic resistance to blastocidin and zeocin. The reporter constructs included: (1) firefly luciferase reporter gene under the control of an ISG54 promoter fused to five interferon (IFN)-stimulated response elements to measure IRF transcription factor binding activity and (2) secreted embryonic alkaline phosphatase reporter gene under transcription control of an IFN-beta minimal promoter fused to 5 copies of the NFkB consensus transcriptional response element and 3 copies of the c-Rel binding site.
The resulting THP-1 cell line was further modified to incorporate 3 amino acid point mutations (H71R A230G Q293R). This modification of the native TMEM173 gene in THP-1 cells (HAQ) was designed to produce a cell reporter that expressed the most common allelic variant in the human population (THP-1 R232, available from InvivoGen). Alternatively, the TMEM173 gene was knocked out to provide a congenic control to counter-screen for compound activation that was independent of the STING protein (THP-1 STING KO).
Once cell lines were established, reporter assay protocols were developed and optimized to screen small molecule compounds for agonist activity. Assay optimization for efficacy and Z′ value included titration of the following parameters:
1. No pre-activation with PMA
2. […]cells/well in 96 well plate format
7. Cell Titer Glo reagent (Promega) following supermatant removal
9. 8 point, 2 fold, duplicate starting at 150 μM PP28T

T1 sequence (Q86WV6 140-379 H232R): as the sequence (Q86WV6 140-379 H232R) above

With `CSc1c(Cl)ccc2c(=O)c3ccc(N(C)C4CC(F)(F)C4)nc3n(CC(=O)O)c12` [Compound 41, Sodium 2-(8-chloro-2-((3,3-difluorocyclobutyl)(methyl)amino)-9-(methylthio)-5-oxobenzo[b][1,8]naphthyridin-10(5H)-yl)acetate] the IC50 [1] was 20 to 100 µM, the “WT_DSF_hSWAT Tm Shift (° C.)” value [2] was “D (“D” > 7° C.)” and the Emax [3] was greater than 50%.
In the case of `CSc1c(Cl)ccc2c(=O)c3ccc(N(CC4CC4)C4CC(F)(F)C4)nc3n(CC(=O)O)c12` [Compound 42, sodium 2-(8-chloro-2-((cyclopropylmethyl)(3,3-difluorocyclobutyl)amino)-9-(methylthio)-5-oxobenzo[b][1,8]naphthyridin-10(5H)-yl)acetate], the IC50 [1] is reported as 20 to 100 µM, the “WT_DSF_hSWAT Tm Shift (° C.)” value [2] is reported as “D (“D” > 7° C.)” and the Emax [3] is reported as greater than 50%.
In the case of `CO[C@H]1C[C@@H](N(CC2CC2)c2ccc3c(=O)c4ccc(Cl)c(SC)c4n(CC(=O)O)c3n2)C1` [Compound 43, sodium 2-(8-chloro-2-((cyclopropylmethyl)(3-methoxycyclobutyl)amino)-9-(methylthio)-5-oxobenzo[b][1,8]naphthyridin-10(5H)-yl)acetate], the IC50 [1] is reported as less than 20 µM, the “WT_DSF_hSWAT Tm Shift (° C.)” value [2] is reported as “D (“D” > 7° C.)” and the Emax [3] is reported as greater than 50%.
`CSc1c(Cl)ccc2c(=O)c3ccc(N(C)C4CC(OC(F)F)C4)nc3n(CC(=O)O)c12` (stereo not drawn) [Compound 45, Sodium 2-(8-chloro-2-((3-(difluoromethoxy)cyclobutyl)(methyl)amino)-9-(methylthio)-5-oxobenzo[b][1,8]naphthyridin-10(5H)-yl)acetate] was tested, and the IC50 [1] was 20 to 100 µM, the “WT_DSF_hSWAT Tm Shift (° C.)” value [2] was “D (“D” > 7° C.)” and the Emax [3] was greater than 50%.
`CSc1c(Cl)ccc2c(=O)c3ccc(N(CC4CC4)C4CC(OC(F)F)C4)nc3n(CC(=O)O)c12` (stereo not drawn) [Compound 46, sodium 2-(8-chloro-2-((cyclopropylmethyl)(3-(difluoromethoxy)cyclobutyl)amino)-9-(methylthio)-5-oxobenzo[b][1,8]naphthyridin-10(5H)-yl)acetate] was tested, and the IC50 [1] was less than 20 µM, the “WT_DSF_hSWAT Tm Shift (° C.)” value [2] was “D (“D” > 7° C.)” and the Emax [3] was greater than 50%.
In the case of `CSc1c(Cl)ccc2c(=O)c3ccc(N(C)C4CC5(CCC5)C4)nc3n(CC(=O)O)c12` [Compound 47, sodium 2-(8-chloro-2-(methyl(spiro[3.3]heptan-2-yl)amino)-9-(methylthio)-5-oxobenzo[b][1,8]naphthyridin-10(5H)-yl)acetate], the IC50 [1] is reported as less than 20 µM, the “WT_DSF_hSWAT Tm Shift (° C.)” value [2] is reported as “D (“D” > 7° C.)” and the Emax [3] is reported as greater than 50%.
For `CSc1c(Cl)ccc2c(=O)c3ccc(N(C)C4CC(C)(C)C4)nc3n(CC(=O)O)c12` [Compound 48, sodium 2-(8-chloro-2-((3,3-dimethylcyclobutyl)(methyl)amino)-9-(methylthio)-5-oxobenzo[b][1,8]naphthyridin-10(5H)-yl)acetate], the IC50 [1] was less than 20 µM, the “WT_DSF_hSWAT Tm Shift (° C.)” value [2] was “D (“D” > 7° C.)” and the Emax [3] was greater than 50%.
With `CSc1c(Cl)ccc2c(=O)c3ccc(N(C)C4CC(C#N)C4)nc3n(CC(=O)O)c12` (stereo not drawn) [Compound 49, sodium 2-(8-chloro-2-((3-cyanocyclobutyl)(methyl)amino)-9-(methylthio)-5-oxobenzo[b][1,8]naphthyridin-10(5H)-yl)acetate] the IC50 [1] was 20 to 100 µM, the “WT_DSF_hSWAT Tm Shift (° C.)” value [2] was “D (“D” > 7° C.)” and the Emax [3] was greater than 50%.
`COCCN(CC(F)(F)F)c1ccc2c(=O)c3ccc(Cl)c(SC)c3n(CC(=O)O)c2n1` [Compound 50, sodium 2-(8-chloro-2-((2-methoxyethyl)(2,2,2-trifluoroethyl)amino)-9-(methylthio)-5-oxobenzo[b][1,8]naphthyridin-10(5H)-yl)acetate] was tested, and the IC50 [1] was 20 to 100 µM, the “WT_DSF_hSWAT Tm Shift (° C.)” value [2] was “D (“D” > 7° C.)” and the Emax [3] was greater than 50%.
For `COCCN(CC(F)F)c1ccc2c(=O)c3ccc(Cl)c(SC)c3n(CC(=O)O)c2n1` [Compound 51, sodium 2-(8-chloro-2-((2,2-difluoroethyl)(2-methoxyethyl)amino)-9-(methylthio)-5-oxobenzo[b][1,8]naphthyridin-10(5H)-yl)acetate], the IC50 [1] was 20 to 100 µM, the “WT_DSF_hSWAT Tm Shift (° C.)” value [2] was “D (“D” > 7° C.)” and the Emax [3] was greater than 50%.
In the case of `CCOc1c(Cl)ccc2c(=O)c3ccc(N(CCOC)CC(F)F)nc3n(CC(=O)O)c12` [Compound 52, sodium 2-(8-chloro-2-((2,2-difluoroethyl)(2-methoxyethyl)amino)-9-ethoxy-5-oxobenzo[b][1,8]naphthyridin-10(5H)-yl)acetate], the IC50 [1] is reported as 100 to 300 µM, the “WT_DSF_hSWAT Tm Shift (° C.)” value [2] is reported as “C (“C” = 2-7° C.)” and the Emax [3] is reported as greater than 50%.
In the case of `CN(C)c1c(Cl)ccc2c(=O)c3ccc(NCC4CC(F)(F)C4)nc3n(CC(=O)O)c12` [Compound 53, Sodium 2-(8-chloro-2-(((3,3-difluorocyclobutyl)methyl)amino)-9-(dimethylamino)-5-oxobenzo[b][1,8]naphthyridin-10(5H)-yl)acetate], the IC50 [1] is reported as less than 20 µM, the “WT_DSF_hSWAT Tm Shift (° C.)” value [2] is reported as “D (“D” > 7° C.)” and the Emax [3] is reported as greater than 50%.
With `CSc1c(Cl)ccc2c(=O)c3ccc(NCC4CC(F)(F)C4)nc3n(CC(=O)O)c12` [Compound 54, Sodium 2-(8-chloro-2-(((3,3-difluorocyclobutyl)methyl)amino)-9-(methylthio)-5-oxobenzo[b][1,8]naphthyridin-10(5H)-yl)acetate] the IC50 [1] was 20 to 100 µM, the “WT_DSF_hSWAT Tm Shift (° C.)” value [2] was “D (“D” > 7° C.)” and the Emax [3] was greater than 50%.
For `CSc1c(Cl)ccc2c(=O)c3ccc(NCC4COC4)nc3n(CC(=O)O)c12` [Compound 55, sodium 2-(8-chloro-9-(methylthio)-2-((oxetan-3-ylmethyl)amino)-5-oxobenzo[b][1,8]naphthyridin-10(5H)-yl)acetate], the IC50 [1] was 20 to 100 µM, the “WT_DSF_hSWAT Tm Shift (° C.)” value [2] was “D (“D” > 7° C.)” and the Emax [3] was greater than 50%.
In the case of `CSc1c(Cl)ccc2c(=O)c3ccc(NC4CC(C#N)C4)nc3n(CC(=O)O)c12` (stereo not drawn) [Compound 56, sodium 2-(8-chloro-2-((3-cyanocyclobutyl)amino)-9-(methylthio)-5-oxobenzo[b][1,8]naphthyridin-10(5H)-yl)acetate], the IC50 [1] is reported as less than 20 µM, the “WT_DSF_hSWAT Tm Shift (° C.)” value [2] is reported as “D (“D” > 7° C.)” and the Emax [3] is reported as greater than 50%.
For `CSc1c(Cl)ccc2c(=O)c3ccc(Nc4ccccc4F)nc3n(CC(=O)O)c12` [Compound 57, sodium 2-(8-chloro-2-((2-fluorophenyl)amino)-9-(methylthio)-5-oxobenzo[b][1,8]naphthyridin-10(5H)-yl)acetate], the IC50 [1] was less than 20 µM, the “WT_DSF_hSWAT Tm Shift (° C.)” value [2] was “D (“D” > 7° C.)” and the Emax [3] was greater than 50%.
